Values quoted from earlier work in patent US20090098211A1, “SOLID DOSAGE FORMS” (priority 2007, published 2009).

## CN1CC(=O)N2[C@H](c3ccc4c(c3)OCO4)c3[nH]c4ccccc4c3C[C@@H]2C1=O [Tadalafil, (6R-trans)-6-(1,3-benzodioxol-5-yl)-2,3,6,7,12,12a-hexahydro-2-methyl-pyrazino[1′,2′:1,6]pyrido[3,4-b]indole-1,4-dione]
water
  solubility in water (in words): practically insoluble in water
Water at 25° C.
  water solubility: about 2 μg per mL
